Data published in PubChem BioAssay AID1963831 (Molecular Pharmacology Branch, DTP, NCI, 2024).

Test system: 889142-216-R-J1-PDC complex spheroid viability
Assay: Anticancer human tumor 889142-216-R-J1-PDC patient-derived bladder carcinoma cell line growth inhibition [POLQ]
Settings: for IC50: curve of first compound; for viability, T/C: stronger effect = lower value
Protocol: Multicellular complex tumor spheroid response to Polymerase (POL) inhibitors (novobiocin, ART-558, RP6685) in combination with a variety of drugs and investigational agents in selected tumor cell lines
The POL inhibitors (novobiocin, ART-558, and RP6685) were evaluated both individually and in combination with standard of care and investigational anticancer small molecules within a complex spheroid model of solid tumors. . Complex spheroids include a stromal component modeled by human endothelial cells (HUVEC) and fibroblasts modeled by human mesenchymal stem cells (MSCs). The concentration ranges selected for each drug and investigational agent were based upon clinically achievable concentrations if the clinical Cmax of the agent was known.
Compounds. The drugs and investigational agents: novobiocin (NSC847541), ART-558 (NSC835418), RP-6685 (NSC848927), peposertib (NSC802822), ceralasertib (NSC780249), elimusertib (NSC800525), camonsertib (NSC841442), AZD-1390 (NSC803789), olaparib (NSC753686), talazoparib (NSC767125), rucaparib (NSC756644), sotorasib (NSC818433), MRTX-1133 (NSC836407), SN-38 (NSC673596), topotecan (NSC609699), epotoside (NSC141540), doxorubicin (NSC123127), gemcitabine (NSC613327), 5-fluorouracil (NSC19893), paclitaxel (NSC125973), vemurafenib (NSC761431), MSA-2 (NSC828583), SN-011 (NSC837082), adavosertib (NSC754352), prexasertib (NSC758257), carboplatin (NSC241240) and oxaliplatin (NSC266046), were obtained from the National Cancer Institute (NCI) Developmental Therapeutics Program Chemical Repository (21). The FDA-approved anticancer drug set is available from the Developmental Therapeutics Program at https://dtp.cancer.gov/organization/dscb/obtaining/. […] The stock solutions were prepared in dimethyl sulfoxide (DMSO, Sigma-Aldrich, St. Louis, MO, cat. D2650), except for the platinum compounds which were prepared in saline (Quality Biological, Gaithersburg, MD, cat. 114-055-101), at 800-fold the tested concentration and stored at -70 degrees C prior to their use. All drugs and investigational agents were tested over a range starting from a high concentration at or near the clinical Cmax and decreasing in half-log increments. If the clinical Cmax for an agent had not been determined, the highest concentration tested was 10 microM, except for SN-38, which was tested at a high concentration of 1 microM.
Cell Culture. All cells were maintained in an incubator at 37 degrees C and 5% CO2 with 95% humidity. The PDC lines were cultured according to standard operating procedures established by the NCI PDMR (https://pdmr.cancer.gov). Table 3 of the manuscript, lists the cell lines along with the number of the three cell types plated to form the mct-spheroids and media for tumor cell growth. After thawing, all PDC lines, except 997537-175-T-J1-PDC and 415267-285-R-J2-PDC, were cultured in Matrigel-coated flasks prepared with a working solution of 1X Ham's F-12 nutrient mix, without supplementation (Thermo Fisher Scientific, cat. 11765054), 100 U/mL penicillin-streptomycin (Thermo Fisher Scientific, cat. 15140122), and 2.5% Matrigel (Corning Inc., Corning, NY, cat. 354248) for the first three passages. The two PDC lines 997537-175-T-J1-PDC and 415267-285-R-J2-PDC were cultured on uncoated flasks. The 857933-349-R-J2-PDC line was cultured in 6C/Colon 1B media containing advanced DMEM/F-12 (Thermo Fisher Scientific, cat. 12634028), 10 mM HEPES (Thermo Fisher Scientific, cat. 15630080), 1X GlutaMAX supplement (Thermo Fisher Scientific, cat. 35050061), 0.1 mg/mL primocin (InvivoGen, San Diego, CA, cat. ant-pm-2), 10% defined fetal bovine serum, heat inactivated (HyClone Laboratories Inc., Logan, UT, cat. SH30070.03HI), 50% L-WRN conditioned media (ATCC, cat. CRL-3276), 1.25 mM N-Acetyl-L-cysteine (Sigma-Aldrich, cat. A9165), 10 mM nicotinamide (Sigma-Aldrich, cat. N0636), 1X B-27 supplement (Thermo Fisher Scientific, cat. 17504044), 1X N-2 supplement (Thermo Fisher Scientific, cat. […]

[1] = second compound 0.0316 µM, first compound 0.0316 µM
[2] = second compound 0.0316 µM, first compound 0.1 µM
[3] = second compound 0.0316 µM, first compound 0.316 µM
[4] = second compound 0.0316 µM, first compound 1 µM
[5] = second compound 0.0316 µM, first compound 3.16 µM
[6] = second compound 0.0316 µM, first compound 10 µM
[7] = second compound 0.1 µM, first compound 0.0316 µM
[8] = second compound 0.1 µM, first compound 0.1 µM
[9] = second compound 0.1 µM, first compound 0.316 µM
[10] = second compound 0.1 µM, first compound 1 µM
[11] = second compound 0.1 µM, first compound 3.16 µM
[12] = second compound 0.1 µM, first compound 10 µM
[13] = second compound 0.316 µM, first compound 0.0316 µM
[14] = second compound 0.316 µM, first compound 0.1 µM
[15] = second compound 0.316 µM, first compound 0.316 µM
[16] = second compound 0.316 µM, first compound 1 µM
[17] = second compound 0.316 µM, first compound 3.16 µM
[18] = second compound 0.316 µM, first compound 10 µM
[19] = second compound 1 µM, first compound 0.0316 µM
[20] = second compound 1 µM, first compound 0.1 µM
[21] = second compound 1 µM, first compound 0.316 µM
[22] = second compound 1 µM, first compound 1 µM
[23] = second compound 1 µM, first compound 3.16 µM
[24] = second compound 1 µM, first compound 10 µM
[25] = second compound 3.16 µM, first compound 0.0316 µM
[26] = second compound 3.16 µM, first compound 0.1 µM
[27] = second compound 3.16 µM, first compound 0.316 µM
[28] = second compound 3.16 µM, first compound 1 µM
[29] = second compound 3.16 µM, first compound 3.16 µM
[30] = second compound 3.16 µM, first compound 10 µM
[31] = second compound 10 µM, first compound 0.0316 µM
[32] = second compound 10 µM, first compound 0.1 µM
[33] = second compound 10 µM, first compound 0.316 µM
[34] = second compound 10 µM, first compound 1 µM
[35] = second compound 10 µM, first compound 3.16 µM
[36] = second compound 10 µM, first compound 10 µM
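Further: spheroids exposed to compounds for seven days.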
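Wherever viability, T/C is given: 100% = DMSO vehicle control viability.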

In the case of `CC1COCCN1c1cc(C2(S(C)(=N)=O)CC2)nc(-c2ccnc3[nH]ccc23)n1` (centres undefined) + COC1C(OC(N)=O)C(O)C(Oc2ccc3c(O)c(NC(=O)c4ccc(O)c(CC=C(C)C)c4)c(=O)oc3c2C)OC1(C)C, the IC50 (second compound 0.0316 µM) is reported as 1930 nM, the IC50 (second compound 0.1 µM) is reported as 1800 nM and the IC50 (second compound 0.316 µM) is reported as 996 nM. The IC50 (second compound 1 µM) was 977 nM, the IC50 (second compound 3.16 µM) was 1960 nM and the IC50 (second compound 10 µM) was 1820 nM. For the same molecule, the viability, T/C [1] was 99%, the viability, T/C [2] was 93.9% and the viability, T/C [3] was 71.5%. It also gave a viability, T/C [4] of 59.8%, a viability, T/C [5] of 42.9% and a viability, T/C [6] of 40.4%. It also gave a viability, T/C [7] of 90.8%, a viability, T/C [8] of 102% and a viability, T/C [9] of 82.9%. For the same molecule, the viability, T/C [10] was 56.6%, the viability, T/C [11] was 46.1% and the viability, T/C [12] was 39.8%. The viability, T/C [13] was 84.3%, the viability, T/C [14] was 92.8% and the viability, T/C [15] was 80.9%. The viability, T/C [16] was 49.7%, the viability, T/C [17] was 49.6% and the viability, T/C [18] was 38.9%. The viability, T/C [19] was 83.4%, the viability, T/C [20] was 131% and the viability, T/C [21] was 73.6%. The viability, T/C [22] was 60.5%, the viability, T/C [23] was 47.6% and the viability, T/C [24] was 40.4%. For the same molecule, the viability, T/C [25] was 100%, the viability, T/C [26] was 98% and the viability, T/C [27] was 85.6%. For the same molecule, the viability, T/C [28] was 55.4%, the viability, T/C [29] was 46.2% and the viability, T/C [30] was 45.2%. For the same molecule, the viability, T/C [31] was 103%, the viability, T/C [32] was 84.2% and the viability, T/C [33] was 87.3%. For the same molecule, the viability, T/C [34] was 53%, the viability, T/C [35] was 49.5% and the viability, T/C [36] was 43.9%.
Molecule `O=C(c1cc(Cc2n[nH]c(=O)c3ccccc23)ccc1F)N1CCN(C(=O)C2CC2)CC1` + COC1C(OC(N)=O)C(O)C(Oc2ccc3c(O)c(NC(=O)c4ccc(O)c(CC=C(C)C)c4)c(=O)oc3c2C)OC1(C)C has an IC50 (second compound 0.0316 µM) of over 10000 nM, an IC50 (second compound 0.1 µM) of over 10000 nM and an IC50 (second compound 0.316 µM) of over 10000 nM. It also gave an IC50 (second compound 1 µM) of over 10000 nM, an IC50 (second compound 3.16 µM) of over 10000 nM and an IC50 (second compound 10 µM) of over 10000 nM. It also gave a viability, T/C [1] of 93%, a viability, T/C [2] of 92.2% and a viability, T/C [3] of 77.2%. It also gave a viability, T/C [4] of 103%, a viability, T/C [5] of 71% and a viability, T/C [6] of 68.6%. It also gave a viability, T/C [7] of 101%, a viability, T/C [8] of 117% and a viability, T/C [9] of 104%. It also gave a viability, T/C [10] of 109%, a viability, T/C [11] of 80.5% and a viability, T/C [12] of 83.5%. For the same molecule, the viability, T/C [13] was 94.4%, the viability, T/C [14] was 111% and the viability, T/C [15] was 114%. It also gave a viability, T/C [16] of 102%, a viability, T/C [17] of 95.5% and a viability, T/C [18] of 72%. For the same molecule, the viability, T/C [19] was 122%, the viability, T/C [20] was 116% and the viability, T/C [21] was 109%. It also gave a viability, T/C [22] of 79.3%, a viability, T/C [23] of 82.5% and a viability, T/C [24] of 65.5%. The viability, T/C [25] was 123%, the viability, T/C [26] was 109% and the viability, T/C [27] was 104%. It also gave a viability, T/C [28] of 101%, a viability, T/C [29] of 78.4% and a viability, T/C [30] of 75.5%. It also gave a viability, T/C [31] of 129%, a viability, T/C [32] of 106% and a viability, T/C [33] of 84.4%. The viability, T/C [34] was 84.8%, the viability, T/C [35] was 103% and the viability, T/C [36] was 77.9%.
